Measurements from patent publication US4734416A, “Pharmaceutically useful carbostyril derivatives” (Otsuka Pharmaceutical Co., Ltd., priority 1978, dated 1988).
Where a name gives a salt, the structure may show the parent alone. Blank lines part the entries; values can stand above or below the compound they belong to.

Tests used:
[1] = Activity for inhibiting fighting behavior of mouse isolated singly for a long period of time; type: in vivo, mouse (male, ddy-strain); settings: positive if fighting no longer than 5 seconds in a minute, range in parentheses, read-out: ED50 (inhibition of fighting behavior)
Protocol: Individual male mice of ddy-strain having 15 to 20 g of body weight are breeded separately in respective cages for 1 month. One test group consists of 10 pairs of mice. The pairs of mice are selected so that when one mouse is taken into the home cage of another, the two mice fight together continuously for over 30 seconds. ED50 values are calculated by administering the respective test compounds to each test groups of mice. Activity for inhibiting fighting behavior of the test compound is determined as positive in case the administered mice only continue the fighting for no longer than 5 seconds in a minute. When the mice continue the fighting over 5 seconds they are forced to separate for the purpose of reducing the number of injured mice. [Reference: C. Y. Yen, R. L. Stanger and N. Millman: Arch. Int. Pharmacodyn., 123, 179 (1959)]

[2] = Halothane anesthesia increasing activity (righting reflex); type: in vivo, mouse (male, ddy-strain); settings: oral; for Time (minutes) between introduction of anesthesia and waking: 8 mg/kg, 1 hour before 4% Halothane
Protocol: Male mice of ddy-strain having about 20 g body weight are used. One test group consists of 10 mice. An aqueous Gummi Arabicum suspension of test compound (80 mg of a compound to be tested and 1 g of Gummi Arabicum/100 ml of physiological NaCl solution) is administered orally to each mouse at the dosage of 8 mg of test compound/kg body. One hour after the administration, each mouse is placed in a gas respiration chamber (13×13×24 cm) and oxygen gas containing 4% of Halothane [2-bromo-2-chloro-1,1,1-trifluoroethane] is blown into the chamber at the velocity of 2 l/min for 3 minutes. A mouse anaesthetized is taken out from the chamber and the time between the introduction of anesthesia to waking is measured by righting reflex as the index. To mice of the control group, 1% Gummi Arabicum aqueous physiological solution is orally administered at the dosage of 0.1 ml/10 g body. [Reference: M. J. Turnbull and J. W. Watkins: Br. J. Pharmac., 58, 27-35 (1976)]
Same procedures as mentioned in (II)-(A) are employed, except that the amount of test compound to be orally administered is changed in 4 steps at the dosage of 0.5 mg/kg, 1 mg/kg, 2 mg/kg and 4 mg/kg respectively to measure the relationship between the dosage and degree of strength of anesthesia increasing activity.

[3] = Analgetic activity (acetic acid writhing); type: in vivo, mouse (male, ddy-strain); settings: Mus musculus, 50 min; oral, 50 minutes before acetic acid i.p.; range in parentheses; read-out: ED50 (analgetic activity)
Protocol: Male mice of ddy-strain having 15-23 g of body weight are used. One test group consists of 10 mice. The compound to be tested is administered orally by procedures similar to the method mentioned in (II). Fifty minutes after the administration, 0.1 ml of 0.6% acetic acid aqueous solution/10 g body weight is injected intraperitoneally. In case of the mice administered orally with the reference compound (Haloperidol), the injection is made 110 minutes after the administration. The number of writhings shown after 10 minutes is counted for 10 minutes and the ED50 value of respective compounds is calculated in comparison with the number of writhings shown by control group. [Reference: R. Koster, M. Anderson and E. I. Debeer: Fed. Proc., 18, 412, (1959)]

[4] = molecular target: T1, enucleated ileum of a guinea pig (Cavia porcellus, UniProt P31389); assay: Antihistamine activity test in vitro (enucleated guinea pig ileum, histamine retraction, pA2 by Van Rossam method); settings: 10^-6 g/ml test compound, 5 minutes before histamine, 36° C.
T1 construct: the tissue of ileum is cut to a length of 2.5 to 3.0 cm and suspended in an organ bath; from tissue; host or cells: isolated ileum from the ileocecal region of male guinea pig
T1 sequence (P31389 whole entry): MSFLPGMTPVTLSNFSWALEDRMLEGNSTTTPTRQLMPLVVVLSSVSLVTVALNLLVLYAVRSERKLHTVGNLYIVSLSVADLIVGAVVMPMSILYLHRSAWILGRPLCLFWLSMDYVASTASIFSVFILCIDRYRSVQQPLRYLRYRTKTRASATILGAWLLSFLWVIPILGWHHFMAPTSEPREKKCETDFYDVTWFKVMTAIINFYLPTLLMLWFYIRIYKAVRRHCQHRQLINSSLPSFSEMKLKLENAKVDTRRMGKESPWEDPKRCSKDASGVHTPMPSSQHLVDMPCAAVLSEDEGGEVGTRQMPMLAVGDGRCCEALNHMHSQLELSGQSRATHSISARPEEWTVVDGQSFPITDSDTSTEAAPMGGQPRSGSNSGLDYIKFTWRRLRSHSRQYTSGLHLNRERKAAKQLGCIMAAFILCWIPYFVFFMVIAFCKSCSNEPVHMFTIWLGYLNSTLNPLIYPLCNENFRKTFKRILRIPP
Protocol: As to the test method for determining antihistamine activity of a compound in vitro, a method of using an enucleated ileum of a guinea pig is generally accepted.
A male guinea pig having 300 to 500 g body weight is killed by blood letting. An ileum having a length of 15 cm being enculeated from the ileocecal region is dipped into Tyrode's solution (which is prepared from […], 0.2 g of KCl, 0.2 g of CaCl2, 1.0 g of glucose, 1.0 g of NaHCO3, 0.065 g of NaHPO4.2H2 O and 0.2135 g of MgCl2.6H2 O to make 1000 ml in total volume by adding water). Then the tissue of ileum is cut to a length of 2.5 to 3.0 cm and suspended in an organ bath filled with 30 ml of Tyrode's solution. The organ bath is kept at a temperature of 36° C. and a mixed gas consisting of 5% of CO2 and 95% of O2 is blown into the bath. 10 Minutes after the blowing, 10^-6 M of histamine is added to the bath to examine the sensitivity of the tissue and a reaction curve (control) with respect to the dosage of histamine is obtained. After the dosage of histamine-reaction curve (control) becomes constant, 10^-6 g/ml of a compound to be tested is added to the bath and further histamine is added 5 minutes later to obtain a dosage-reaction curve. Retraction of the ileum is recorded on a pen-recorder through an isotonic transducer [TD-112S manufactured by Nihon Koden]. Antihistamine activity of the test compound is determined as pA2 value by the "Van Rossam" method [J. M. Van Rossam; Arch. Inst. Pharmacodyn., 143, 299 (1963)] wherein the maximum retraction of ileum caused by histamine shown in the control curve is 100%.

[5] = Hexabarbital sleep increasing activity (righting reflex); type: in vivo, mouse (male, ddy-strain); settings: oral, Hexabarbital Na 70 mg/kg i.p.
Protocol: Male mice of ddy-strain having 20 to 25 g body weight are starved for 24 hours. One test group consists of 10 mice. An aqueous Gummi Arabicum suspension of test compound (0.05 g of test compound and 1 g of Gummi Arabicum/100 ml of physiological NaCl solution) is administered orally at the dosage mentioned in the Table 4. One hour after the administration 0.7% of Hexabarbitol.Na-salt is intraperitonerally administered at the dosage of 70 mg/kg body weight. The time between the introduction of sleep to waking is measured by righting reflex as the index. [Reference: A. M. Hjort, De E. J. Beer and D. W. Fassett; J. Pharmac., Exptl.

[6] = in vivo; settings: mouse
Protocol: Mice of ddy-strain having 20-22 g of body weight are used. One test group consists of 10 mice.
Oral administration: Compound to be tested is suspended in 1% Gummi Arabicum physiological NaCl aqueous solution.
Intravenuous administration: Compound to be tested is dissolved in 50% propyleneglycol aqueous solution.

[7] = antihistamic effect, literature value; cited from earlier work

Kb [4]: 0.295 nM
SMILES: O=c1ccc2ccc(OCCCN3CCN(c4ccccc4)CC3)cc2[nH]1 [Compound 37, 7-[3-(4-Phenylpiperazinyl)propoxy]carbostyril]
ED50 [1]: 0.78 mg/kg
Time (minutes) between introduction of anesthesia and waking [2]: 13.1 ± 6.0 min
ED50 [3]: 1.52 mg/kg

SMILES: O=C1CCc2ccc(OCCCN3CCN(c4ccccc4)CC3)cc2N1 [Compound 6, 7-[3-(4-Phenylpiperazinyl)propoxy]-3,4-dihydrocarbostyril dihydrochloride]
ED50 [1]: 0.7 mg/kg
Sleep time (min.) [Mean ± SD] ([5]; 0.5 mg/kg): 43.76 ± 6.09 min
Sleep time (min.) [Mean ± SD] ([5]; 1.0 mg/kg): 51.24 ± 11.75 min
Sleep time (min.) [Mean ± SD] ([5]; 2.0 mg/kg): 54.11 ± 7.80 min
Sleep time (min.) [Mean ± SD] ([5]; 4 mg/kg): 65.13 ± 11.59 min
Sleep time (min.) [Mean ± SD] ([5]; 8 mg/kg): 85.83 ± 12.24 min
Anesthesia increasing activity ([2]; 0.5 mg/kg): 8.2 ± 2.6 min
Anesthesia increasing activity ([2]; 1 mg/kg): 10.3 ± 3.3 min
Anesthesia increasing activity ([2]; 2 mg/kg): 12.1 ± 4.2 min
Anesthesia increasing activity ([2]; 4 mg/kg): 16.6 ± 5.1 min
Time (minutes) between introduction of anesthesia and waking [2]: 16.8 ± 6.2 min
ED50 [3]: 2.31 mg/kg
LD50 ([6]; iv, female mice): 250 mg/kg
LD50 ([6]; iv, male mice): 240 mg/kg
LD50 ([6]; po, female mice): 890 mg/kg
LD50 ([6]; po, male mice): 920 mg/kg
Kb [4]: 0.457 nM

SMILES: CC(C)(C)NCC(O)COc1cccc2c1CCC(=O)N2 (stereo not shown) [5-(3-tert-butylamino-2-hydroxy)propoxy-3,4-dihydrocarbostyril hydrochloride]
pA2 [7]: 5.02
